Measurements: PMC4922569, “Antifibrotic Effects of the Dual CCR2/CCR5 Antagonist Cenicriviroc in Animal Models of Liver and Kidney Fibrosis” (PLoS ONE, 2016)

Legend:
[1] = tested on: CCL2-mediated chemotaxis of activated murine macrophages (F4/80+/CD11b+); experiment: Ex vivo CCL2-induced chemotaxis of activated mouse macrophages (Transwell); format: cell-based; details: CCL2-stimulated cells (1 nM CCL2), no CVC, 2 hours
Experimental: Mouse monocyte migration in response to CVC treatment was assessed ex vivo in triplicate. TG was injected intraperitoneally into male C57BL/6 mice (n = 3; 8–10 weeks of age; Jackson Laboratory, USA) and activated macrophages were collected 48 hours later by peritoneal lavage. Chemotaxis was assayed using a Transwell® Chamber (Costar, USA) with a 5 μm-pore size polycarbonate filter, as previously described. Briefly, cells were incubated for 2 hours in the presence of 1 nM CCL2 and/or 1 μM CVC (dissolved in dimethyl sulfoxide with 0.5% acetic acid and diluted 1:1000 with serum-free Roswell Park Memorial Institute-1640 medium and 0.5% bovine serum albumin). Cells were harvested from the lower compartment and analyzed by flow cytometry to enumerate F4/80^+CD11b^+ macrophages using a 3-laser BD FACSCanto™ (BD Biosciences, Canada). Results were analyzed using FlowJo software (Tree Star Inc., USA).
(§1) In the peritonitis mouse model, one-way analysis of variance with post-hoc Dunnett’s test was performed, using GraphPad Prism® (GraphPad Software, Inc., USA), on differential cell counts obtained from lavage in treatment groups versus the vehicle-control group. For the ex vivo migration of mouse monocytes, statistical significance was determined by a Student’s t test.

[2] = tested on: monocyte/macrophage recruitment; experiment: Thioglycollate (TG)-induced mouse model of peritonitis: peritoneal lavage monocyte/macrophage counts; format: in vivo; details: dexamethasone 1 mg/kg QD PO Days 1-5; 48 h post-TG
Experimental: A murine thioglycollate (TG)-induced model of peritonitis, where acute inflammation induced by intraperitoneal (IP) injection of TG results in a rapid increase in monocyte/macrophage migration into the peritoneal cavity, was employed to assess the effects of CVC on cell recruitment in vivo. The protocol was approved by the IACUC of Charles River Laboratories Preclinical Services, Montreal (PCS-MTL). The care and use of animals was conducted in accordance with the guidelines of the US National Research Council and the Canadian Council on Animal Care.
Male C57BL/6 mice (n = 44; 8–10 weeks of age; Charles River Laboratories, Canada) were allocated to receive treatments via oral gavage (PO) on Days 1–5 in the following groups: non-disease control, vehicle control twice daily (BID), CVC 5 mg/kg/day (CVC5) BID, CVC 20 mg/kg/day (CVC20) BID, CVC 100 mg/kg/day (CVC100) BID, CVC20 QD, and positive control dexamethasone (corticosteroid known to reduce inflammation in a variety of animal models) 1 mg/kg QD (S1 Table). On Day 4, peritonitis was induced via IP injection of TG 3.85% (1 mL/animal) 2 hours post-dose in all groups except non-disease controls. Study endpoints included: peritoneal lavage cell counts and pharmacokinetic (PK) evaluation. Animals were sacrificed 48 hours post-TG injection by isoflurane inhalation, and peritoneal lavage and blood samples (0.7 mL) were collected. Differential cell counts were assessed in peritoneal lavage samples using an Advia® Hematology System (Siemens Healthcare Diagnostics, USA) with multispecies software and an analysis software designed for mouse peritoneal fluid on Advia® 120 (LabThruPut, USA). A 0.3 mL aliquot of the blood sample was processed to plasma for PK analysis.
as §1

Row | Compound | Average fold change in migrating cells (±SD) compared to untreated and unstimulated cells [1] [fold] | Decrease in peritoneal lavage monocyte/macrophage counts compared to vehicle control [2] [%]
1 | CCL2: C-C chemokine ligand type 2, chemotaxis stimulus for activated macrophages [reference compound] | 4.6±0.9 | 
2 | C[C@@H]1C[C@H]2[C@@H]3CCC4=CC(=O)C=C[C@]4(C)[C@@]3(F)[C@@H](O)C[C@]2(C)[C@@]1(O)C(=O)CO [dexamethasone, reference compound] |  | 38.1
